Results published in PMC8795987, “Time-dependent inhibition of CYP3A4-mediated midazolam metabolism by macrolide antibiotics in CYP3A4 genetic variants: Comparison with testosterone metabolism” (International Journal of Clinical Pharmacology and …, 2021).

Key:
CYP3A = conditions: cited from earlier work
CYP3A4 genetic variants = assay: Static model estimate of residual enzyme activity and midazolam AUC ratio in CYP3A4 genetic variants; parameters: species or system human; conditions: all genetic variants; increase in AUC of 2- to < 5-fold; estimated
Experimental: (§1) Based on the static model, residual enzyme activity (ε) under the steady state is determined by the inactivation rate by the MBI inhibitor (k inact ([I])) and the turnover rate in the absence of inhibitor (k deg), and calculated by using the following Equation 2.

[1] = tested on: CYP3A4 WT, .2, .7, .16, .18; assay: Mechanism-based inhibition of midazolam 1′-hydroxylation, results stated across the five variants; type: biochemical, human; conditions: human, pH 7.4, probe midazolam 2 µM (1′-hydroxylation), range over the five variants
Experimental: (§2) Next, 4 µM midazolam solution (final concentration at incubation: 2 µM) together with NADPH-generating system solution and 300 mM K^+ phosphate buffer containing 0.3 mM EDTA were added to start the metabolic reaction for 20 minutes at 37 °C. The reaction was terminated by the addition of 450 µL of ice-cold methanol, followed by 50 µL of 0.1 µM nitrazepam as an internal standard. The mixture was then centrifuged at 3,500 ×g for 20 minutes at 4 °C, and the concentration of 1′-hydroxymidazolam in the supernatant was determined using HPLC-ultraviolet (UV) method described below.
(§3) The HPLC system consisted of a pump ([…]; Shimadzu, Kyoto, Japan), an UV-detector SPD-10AD (Shimadzu), and an octadecylsilyl column (Cosmosil, 5C18-MS-II, 4.6×250 mm, ODS; Nacalai Tesque, Kyoto, Japan). The mobile phase consisted of 50% methanol (v/v) and was pumped at a rate of 1.5 mL/min. The UV wavelength was set at 245 nm.
as §1

[2] = tested on: five CYP3A4 genetic variants (Wt, .2, .7, .16, .18); assay: as above; type: biochemical, human; conditions: all CYP3A4 variants; preincubation with NADPH-generating system
Experimental: as §2, §3, §1

[3] = Clinical plasma concentration; type: in vivo, human; conditions: for Cmax,u (maximum plasma unbound concentration in the clinical settings): Cmax × fu; for Cmax: oral, human plasma, converted from μg/mL
CYP3A4 WT = biological target: T1, CYP3A4 WT (Homo sapiens, UniProt P08684); assay: Mechanism-based inhibition of midazolam 1′-hydroxylation by recombinant CYP3A4 WT; type: biochemical; conditions: substrate midazolam, geometric mean (–1S.D. ~ +1S.D.), n = 5, read-out: K I
T1 construct: made in house; host or cells: Escherichia coli
Experimental: (§4) 1′-Hydroxymidazolam was purchased from Biosciences-Discovery Labware (Tokyo, Japan). The membrane fraction of CYP3A4 (WT, .2, .7, .16, .18) expressed by Escherichia coli were prepared according to our previously reported method. All other chemicals and reagents of analytical and high-performance liquid chromatography (HPLC) grade were obtained from commercial sources.
as §2, §3

CYP3A4.16 = biological target: T2, CYP3A4.16 (Homo sapiens, UniProt P08684, T185S); assay: Mechanism-based inhibition of midazolam 1′-hydroxylation by recombinant CYP3A4.16; type: biochemical; conditions: substrate midazolam, geometric mean (–1S.D. ~ +1S.D.), n = 5
T2 construct: made in house; host or cells: Escherichia coli
Experimental: as §4, §2, §3

[4] = erythromycin; cited from earlier work
CYP3A4.7 = biological target: T3, CYP3A4.7 (Homo sapiens, UniProt P08684, G56D); assay: Mechanism-based inhibition of midazolam 1′-hydroxylation by recombinant CYP3A4.7; type: biochemical; conditions: substrate midazolam, geometric mean (–1S.D. ~ +1S.D.), n = 5
T3 construct: made in house; host or cells: Escherichia coli
Experimental: as §4, §2, §3

CYP3A4.2 = biological target: T4, CYP3A4.2 (Homo sapiens, UniProt P08684, S222P); assay: Mechanism-based inhibition of midazolam 1′-hydroxylation by recombinant CYP3A4.2; type: biochemical; conditions: substrate midazolam, geometric mean (–1S.D. ~ +1S.D.), n = 5
T4 construct: made in house; host or cells: Escherichia coli
Experimental: as §4, §2, §3

T1 sequence (P08684 whole entry): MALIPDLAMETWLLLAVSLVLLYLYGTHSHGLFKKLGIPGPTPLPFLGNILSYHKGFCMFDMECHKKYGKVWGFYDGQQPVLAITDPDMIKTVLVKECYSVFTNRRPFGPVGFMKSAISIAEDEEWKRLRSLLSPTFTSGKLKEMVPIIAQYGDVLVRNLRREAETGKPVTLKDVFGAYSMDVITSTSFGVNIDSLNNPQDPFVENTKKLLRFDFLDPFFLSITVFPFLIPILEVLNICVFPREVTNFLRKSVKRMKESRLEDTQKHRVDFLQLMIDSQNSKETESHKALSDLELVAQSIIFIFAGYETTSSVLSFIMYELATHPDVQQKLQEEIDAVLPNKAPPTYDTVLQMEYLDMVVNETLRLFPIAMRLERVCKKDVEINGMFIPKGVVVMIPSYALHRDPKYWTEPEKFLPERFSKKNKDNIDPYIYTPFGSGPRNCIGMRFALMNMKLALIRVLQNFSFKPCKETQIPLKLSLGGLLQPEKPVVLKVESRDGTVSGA
T4 sequence (P08684 whole entry S222P): as the sequence (P08684 whole entry) above, with S222P counted along it
T2 sequence (P08684 whole entry T185S): as the sequence (P08684 whole entry) above, with T185S counted along it
T3 sequence (P08684 whole entry G56D): as the sequence (P08684 whole entry) above, with G56D counted along it

SMILES | fm,CYP3A (contribution of 1-hydroxylation by CYP3A to overall systemic elimination) (CYP3A) [%] | extent of DDI category based on the FDA guideline (CYP3A4 genetic variants) | Ki ([1]; in vitro data in the present study, substrate midazolam, read-out: KI (range among variants)) [nM] | KI (inactivation) ([1]; product of K I and fu,mic, read-out: KI,u (unbound concentration of inhibitor that confers half-maximal rate of inactivation)) [nM] | inhibition of 1′-hydroxylation of midazolam by all CYP3A4 variants [2] | Cmax,u (maximum plasma unbound concentration in the clinical settings) [3] [nM] | Cmax [3] [nM] | KI (inactivator concentration giving half-maximal inactivation rate) (CYP3A4 WT) [nM] | Ki (CYP3A4.16) [nM] | fu,mic (estimated unbound fraction in microsomal preparation) [4] | Ki (CYP3A4.7) [nM] | Ki (CYP3A4.2) [nM]
Cc1ncc2n1-c1ccc(Cl)cc1C(c1ccccc1F)=NC2 [midazolam, Midazolam] | 98 |  |  |  |  |  |  |  |  |  |  | 
CC[C@H]1OC(=O)[C@H](C)[C@@H](O[C@H]2C[C@@](C)(OC)[C@@H](O)[C@H](C)O2)[C@H](C)[C@@H](O[C@@H]2O[C@H](C)C[C@H](N(C)C)[C@H]2O)[C@](C)(OC)C[C@@H](C)C(=O)[C@H](C)[C@@H](O)[C@]1(C)O [Clarithromycin] |  | moderate | 689 to 2690 | 590 to 2310 | time-dependent manner | 775 | 1550 |  |  |  |  | 
CC[C@H]1OC(=O)[C@H](C)[C@@H](O[C@H]2C[C@@](C)(OC)[C@@H](O)[C@H](C)O2)[C@H](C)[C@@H](O[C@@H]2O[C@H](C)C[C@H](N(C)C)[C@H]2O)[C@](C)(O)C[C@@H](C)C(=O)[C@H](C)[C@@H](O)[C@]1(C)O [Erythromycin] |  |  |  |  |  | 721 | 1120 | 677 | 1820 | 0.857 | 512 | 1140
